# How the values were obtained:
# [1] = system: Xanthi tobacco suspension; experiment: Single cell induction by colchicine in Xanthi suspension; assay type: cell-based
# Source text: BY2 suspension-cultured cells were obtained from Japan tobacco and maintained in LSBY2 medium in a 7 day cycle. Jimsonweed suspension and Pettite Havana tobacco suspensions were initiated from callus initiated at DAS and Xanthi suspensions were procured as a sample from Professor Jack Widholm from UIUC, IL. JT-NT1 suspension cells, obtained from Washington University that are maintained in NT1B medium in 7 day cycle were used only for the pectin degradation enzyme study to separate the cells into single cells. The cells were cultured in shake flasks at 25-28° C. in dark on orbital shakers at 150 rpm. […] The NT-1 cell line is widely used and readily available; though, any tobacco suspension cell line is consistent with the practice of the invention. […]
# Cell expansion and separation were observed by light microscopy (with Nomarski and dark field optics). Spherical cells and single cells were counted by using a hemacytometer to determine the degree of cell expansion and separation, respectively. Cell numbers in aggregates were determined by treating with 5% (wt/vol) chromium trioxide for 16 hr and counting cells (Henshaw et. al, 1966). Cell viability was determined by staining cells (Yokoyama et. al, 1997) with fluorescein diacetate (FDA) and propidium iodide (PI) using a fluorescent microscope (Zeiss Photomicroscope). […]
# soybean suspension cells = conditions: cited from earlier work
# maize suspension = experiment: Single cell production from chlorophyllous maize cell cultures; assay type: cell-based
# Source text: The maize photoautotrophi cultures were initiated and maintained in 7 day culture cycles (Jayakumar et. al. 2005). […] The maize suspension units are tightly packed into hard cell aggregates when compared to the dicot cells analyzed.
# Eragrostis curvula = conditions: seeds treated with 0.05% colchicine, tetraploids; cited from earlier work
# JM cells = experiment: Effects of colchicine on growth and cell separation of Jimson weed suspension cells; assay type: cell-based
# Source text: BY2 suspension-cultured cells were obtained from Japan tobacco and maintained in LSBY2 medium in a 7 day cycle. Jimsonweed suspension and Pettite Havana tobacco suspensions were initiated from callus initiated at DAS and Xanthi suspensions were procured as a sample from Professor Jack Widholm from UIUC, IL. JT-NT1 suspension cells, obtained from Washington University that are maintained in NT1B medium in 7 day cycle were used only for the pectin degradation enzyme study to separate the cells into single cells. The cells were cultured in shake flasks at 25-28° C. in dark on orbital shakers at 150 rpm. […] Stock concentrations of both the tubulin polymerization inhibitors used in this investigation were dissolved in DMSO to prepare a 0.5 M stock solution. The concentration tested for the pectinase and pectolyase enzymes were in the range of 0.0005% to 0.005%. The tobacco suspension cell lines NT-1 and BY-2, for example, are suitable for the practice of the present invention. […] The NT-1 cell line is widely used and readily available; though, any tobacco suspension cell line is consistent with the practice of the invention. […]
# Cell expansion and separation were observed by light microscopy (with Nomarski and dark field optics). Spherical cells and single cells were counted by using a hemacytometer to determine the degree of cell expansion and separation, respectively. Cell numbers in aggregates were determined by treating with 5% (wt/vol) chromium trioxide for 16 hr and counting cells (Henshaw et. al, 1966). Cell viability was determined by staining cells (Yokoyama et. al, 1997) with fluorescein diacetate (FDA) and propidium iodide (PI) using a fluorescent microscope (Zeiss Photomicroscope). […] Calcafluor obtained from Sigma, which is a specific fluorescent dye for cellulose is used in this study, and the cellulose-Calcafluor complexing was observed by fluorescence microscopy (Zeiss Photomicroscope). […]
# JTNT1 single cells = experiment: Cytological characterization of JTNT1 single cells (nucleus, cell wall); assay type: cell-based, tobacco
# Experimental: JTNT1 Tobacco single cell initiation and sample collection. JTNT1 Tobacco single cells were initiated in two different media, NT1B with 3% sucrose (NT1B-Suc) and NT1B with 3% glycerol (NT1B-Gly) in 3.5 day culture cycle. […] The flasks were closed with a foam stopper and cultured on a orbital shaker at 130 rpm in dark at 25-28° C. The cultures were sub cultured every 3.5 days up to a period of 14 days. Four samples (Suc/Gly grown cells and the control cultures in Suc/Gly media with 0.2% DMSO) of the cultures were harvested every 3.5 days by spinning the suspension at 3000 rpm for 5 minutes. The samples were immediately lyophilized to prevent any cell oxidation to minimize any deleterious effect on the samples introduced post harvest. Single cells were stained with Hoechst nuclear stain for an hour and observed under scopes for any nuclear anomaly up to two culture cycles.
# Cell viability and Cell wall. Established JTNT1 single cells were used to stain with FUN1 (F-7030, Molecular Probes, Invitrogen Inc) cell stain which is used for viability test in yeast, and this contains two color fluorescent probes. The third one, Calcofluor White M2R which stains cell wall, was used to stain the cells. For JTNT1 single cells, […] of FUN1 stain is added and the culture was incubated at room temperature for 20 mins 1 mL fresh culture media was added to wash the excess stain and centrifuged at 3000 rpm; the supernantant was discarded. The cells were examined and imaged on Zeiss ApoTome microscope.
# Nucleus. Single cells were stained with Hoechst nuclear stain for an hour and observed on Zeiss Apo Tome for any nuclear anomaly up to two culture cycles. Crystal violet stain was also used as a live nuclear stain for observing nuclear structure for ploidy characterization
compound,measurement,setting,value
COc1cc2c(c(OC)c1OC)-c1ccc(OC)c(=O)cc1[C@@H](NC(C)=O)CC2 [Colchicine],single cell release,"[1]; 0.5 mM, 7 d",partial release of single cells
same,single cell release,[1]; 1 mM,Separated single cells
same,viable cells,soybean suspension cells; 1 mM colchicine,44.8%
same,concentration in culture medium for cell separation,soybean suspension cells,0.1 to 1.0 mM
same,concentration at which active in releasing single cells,maize suspension,above 0.5 mM
same,polymorphic percentage,Eragrostis curvula,1.09%
same,cell growth,JM cells; 0.5 mM,drastically affected
same,cell viability (FDA and PI),"JM cells; 1 mM, 7 d",high viability
same,single suspension cells,"JM cells; 1 mM, 7 days",high degree of single suspension cells
CCOC(=O)COc1nn(-c2ccccc2)c(-c2ccccc2)c1Cl [DAS-PMTI-1],nuclear organization of single cells,"JTNT1 single cells; 1 uM, 3.5 d cultures",single nucleus
same,nuclear ploidy,JTNT1 single cells; 14 days of continuous treatments,low or no nuclear ploidy percentage

# — patent publication US8206983B2, “In vitro methods for the induction and maintenance of plant cell lines as single suspension cells with intact cell walls” (Dow AgroSciences, LLC., priority 2006, dated 2012)
